Measurements from patent US11639350B2, “Heteroaryldihydropyrimidine derivatives and methods of treating hepatitis B infections” (Janssen Pharmaceutica NV, priority 2018, dated 2023).
Where two headings read alike, the source gives them in different places.

Assays:
HBV = HBV inhibitory activity: HBV DNA in the culture medium of HepG2.2.15 cells by q-PCR; format: cell-based; conditions: HepG2.2.15 cells, 6 days of compound treatment, HBV DNA in culture medium by q-PCR, highest concentration 10 μM, read-out: EC50
Procedure, shortened: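 HepG2.2.15 cells in 2% FBS medium, 40,000 per well, treated 6 days with compound (medium refreshed once), eight 3-fold dilutions from 10 μM top. HBV DNA extracted from culture medium and quantified by q-PCR; EC50 averaged over repeats. Cytotoxicity run in parallel at 5,000 cells per well, top 100 μM, giving CC50.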

[1] = Cytotoxicity determination in HepG2.2.15 cells (CCK-8); format: cell-based; conditions: human, 6 days of compound treatment, CCK-8, highest concentration 100 μM
Procedure, shortened: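 HepG2.2.15 cells seeded at 5,000 cells/well in 2% FBS medium, incubated overnight at 37° C., then treated 6 days with compounds (8 points, 3-fold dilutions, top 100 μM), medium refreshed once midway. CCK-8 added for 2.5 h; A450 read against 630 nm reference; CC50 calculated, averaged over repeats.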

[2] = Hepatitis B virus, HepG2.2.15, 144 h

| Structure (SMILES) | EC50 (HBV; [2]) [nM] | CC50 at 6 days [1] [nM] | EC50 (HBV) [nM] |
| --- | --- | --- | --- |
| COC(=O)C1=C([C@H]2CCCC(C(=O)O)C2)NC(c2nccs2)=NC1c1cccc(F)c1Cl (stereo in doubt) [Compound 25, cis-3-(6-(2-Chloro-3-fluorophenyl)-5-(methoxycarbonyl)-2-(thiazol-2-yl)-3,6-dihydropyrimidin-4-yl)cyclohexanecarboxylic Acid] | 165 | 35300 | – |
| COC(=O)CCS(=O)(=O)N1CCC(C2=C(C(=O)OC)C(c3cccc(F)c3Cl)N=C(c3nccs3)N2)CC1 (single isomer, unassigned) [Compound 113Y, 4-(2-Chloro-3-fluoro-phenyl)-6-[1-(2-methoxycarbonyl-ethane-sulfonyl)-piperidin-4-yl]-2-thiazol-2-yl-1,4-dihydro-pyrimidine-5-carboxylic Acid Methyl Ester] | 966 | 11800 | – |
| CCOC(=O)C1=C(C2CCN(S(=O)(=O)[C@H]3C[C@@H](C(=O)O)C3)CC2)NC(c2nccs2)=NC1c1ccc(F)c(F)c1Cl (relative stereo) [Compound 370D, (cis)-3-((4-(6-(2-Chloro-3,4-difluorophenyl)-5-(ethoxycarbonyl)-2-(thiazol-2-yl)-3,6-dihydropyrimidin-4-yl)piperidin-1-yl)sulfonyl)cyclobutanecarboxylic Acid] | 40 | 26300 | – |
| COC(=O)CCS(=O)(=O)N1CCC(C2=C(C(=O)OC)C(c3ccc(F)c(F)c3Cl)N=C(c3nccs3)N2)CC1 (stereo not drawn) [Compound 157A, Methyl 4-(2-chloro-3,4-difluorophenyl)-6-(1-((3-methoxy-3-oxopropyl)sulfonyl)piperidin-4-yl)-2-(thiazol-2-yl)-1,4-dihydropyrimidine-5-carboxylate] | 85 | 80000 | – |
| COC(=O)C1=C(C2CCN(S(=O)(=O)C3COC3)CC2)NC(c2nccs2)=NC1c1ccc(F)cc1Cl (single isomer, unassigned) [Compound 110B, Methyl 4-(2-chloro-4-fluorophenyl)-6-(1-(oxetan-3-ylsulfonyl)-piperidin-4-yl)-2-(thiazol-2-yl)-1,4-dihydropyrimidine-5-carboxylate] | 798 | > 10000 | – |
| COC(=O)C1=C([C@H]2CC[C@H](C(=O)O)CC2)NC(c2nccs2)=NC1c1ccc(F)c(F)c1C (stereo partly drawn) [Compound 227A, (trans)-4-(−6-(3,4-Difluoro-2-methylphenyl)-5-(methoxycarbonyl)-2-(thiazol-2-yl)-3,6-dihydropyrimidin-4-yl)cyclohexanecarboxylic Acid] | 96 | 37600 | – |
| COC[C@H](O)CN([C@H]1CC[C@H](C2=C(C(=O)OC)C(c3ccc(F)c(F)c3Cl)N=C(c3nccs3)N2)CC1)S(C)(=O)=O (single isomer, unassigned) [Compound 245B] | 49 | 12300 | – |
| COC(=O)C1=C(C2CCC(C(=O)O)C2)NC(c2nccs2)=NC1c1ccc(F)cc1Cl (single isomer, unassigned) [Compound 72C, 3-(6-(2-Chloro-4-fluorophenyl)-5-(methoxycarbonyl)-2-(thiazol-2-yl)-3,6-dihydropyrimidin-4-yl)cyclopentanecarboxylic Acid] | – | 22100 | 475 |
| COC(=O)C1=C(C2CCC(S(=O)(=O)N3CCC3)CC2)NC(c2nccs2)=NC1c1ccc(F)c(F)c1Cl (stereo not drawn) [Compound 430, methyl 6-(4-(azetidin-1-ylsulfonyl)cyclohexyl)-4-(2-chloro-3,4-difluorophenyl)-2-(thiazol-2-yl)-1,4-dihydropyrimidine-5-carboxylate] | 15 | 15100 | – |
| COC(=O)C1=C(C2CCN(S(=O)(=O)c3cccc(C(=O)O)c3)CC2)NC(c2nccs2)=NC1c1cccc(F)c1Cl (stereo not drawn) [Compound 118, 3-((4-(6-(2-Chloro-3-fluorophenyl)-5-(methoxycarbonyl)-2-(thiazol-2-yl)-3,6-dihydropyrimidin-4-yl)piperidin-1-yl)sulfonyl)benzoic Acid] | 15 | 59100 | – |
| CCOC(=O)C1=C([C@@H]2CCN(S(C)(=O)=O)[C@@H](CO)C2)NC(c2nccs2)=NC1c1ccc(F)cc1Cl (single isomer, unassigned) [Compound 379C, ethyl 4-(2-chloro-4-fluorophenyl)-6-((trans)-2-(hydroxymethyl)-1-(methylsulfonyl)piperidin-4-yl)-2-(thiazol-2-yl)-1,4-dihydropyrimidine-5-carboxylate] | 55 | 32600 | – |
| COC(=O)C1=C(C2C3CCC2CN(S(C)(=O)=O)C3)NC(c2nccs2)=NC1c1cccc(F)c1Cl (single isomer, unassigned) [Compound 37B, Methyl 4-(2-chloro-3-fluorophenyl)-6-(3-(methylsulfonyl)-3-azabicyclo[3.2.1]octan-8-yl)-2-(thiazol-2-yl)-1,4-dihydropyrimidine-5-carboxylate] | 129 | 5900 | – |
| COC(=O)C1=C(C2CCN(C(=O)C3(C(=O)OC)CC3)CC2)NC(c2nccs2)=NC1c1ccc(F)cc1Cl (stereo not drawn) [Compound 108, Methyl-4-(2-chloro-4-fluorophenyl)-6-(1-(1-(methoxycarbonyl)-cyclopropane-1-carbonyl)piperidin-4-yl)-2-(thiazol-2-yl)-1,4-dihydropyrimidine-5-carboxylate] | 77 | 26900 | – |
| CCOC(=O)C1=C(C2CCN(S(=O)(=O)[C@H]3CC[C@H](C(=O)O)CC3)CC2)NC(c2nccs2)=NC1c1ccc(F)c(F)c1Cl (relative stereo) [Compound 354C, (trans)-4-((4-(6-(2-Chloro-3,4-difluorophenyl)-5-(ethoxycarbonyl)-2-(thiazol-2-yl)-3,6-dihydropyrimidin-4-yl)piperidin-1-yl)sulfonyl)cyclohexane-carboxylic Acid] | 15 | 7900 | – |
| CCOC(=O)C1=C(C2CCN(S(=O)(=O)[C@H]3C[C@H](C(=O)O)C3)CC2)NC(c2c(F)cc(F)cc2F)=NC1c1ccc(F)c(F)c1Cl (stereo partly drawn) [Compound 195A, (trans)-3-((4-(6-(2-Chloro-3,4-difluorophenyl)-5-(ethoxycarbonyl)-2-(2,4,6-trifluorophenyl)-3,6-dihydropyrimidin-4-yl)piperidin-1-yl)sulfonyl)cyclobutanecarboxylic Acid] | 84 | 43900 | – |
| CCOC(=O)C1=C(C2CCN(S(=O)(=O)[C@H]3C[C@@H](C(=O)O)C3)CC2)NC(c2nccs2)=NC1c1ccc(F)c(F)c1C (relative stereo) [Compound 343D, (cis)-3-((4-(6-(3,4-difluoro-2-methylphenyl)-5-(ethoxycarbonyl)-2-(thiazol-2-yl)-3,6-dihydropyrimidin-4-yl)piperidin-1-yl)sulfonyl)cyclobutane-carboxylic Acid] | 53 | 24000 | – |
| CCOC(=O)C1=C([C@H]2CC[C@H](C(=O)O)CC2)NC(c2nccs2)=NC1c1ccc(F)c(F)c1C (stereo partly drawn) [Compound 154A] | 71 | 30700 | – |
| COC(=O)C1=C(C2CCN(S(=O)(=O)C[C@H]3CC[C@H](C(=O)O)CC3)CC2)NC(c2nccs2)=NC1c1cccc(F)c1C (stereo partly drawn) [Compound 444b, (trans)-4-(((4-(6-(3-Fluoro-2-methylphenyl)-5-(methoxycarbonyl)-2-(thiazol-2-yl)-3,6-dihydropyrimidin-4-yl)piperidin-1-yl)sulfonyl)methyl)cyclohexanecarboxylic Acid] | 59 | 8300 | – |
